Assay results as given in patent publication US11542240B2, “STK19 inhibitors for treatment of cancer” (TRUSTEES OF BOSTON UNIVERSITY, priority 2018, dated 2023).
Read-outs that look alike come from different tables or passages of the source.

What was measured:
Experiment in all cases: biochemical
Format in all cases: binding
[1] = molecular target: panel of 468 diverse kinases (Homo sapiens, UniProt Q8WTQ7); conditions: GRK7; 1000 nM; read-out: Percent Control
[2] = molecular target: panel of 468 diverse kinases (Homo sapiens, UniProt Q13188); conditions: MST2; 1000 nM; read-out: Percent Control
[3] = molecular target: panel of 468 diverse kinases (Homo sapiens, UniProt Q6XUX3); conditions: RIPK5; 1000 nM; read-out: Percent Control
[4] = molecular target: panel of 468 diverse kinases (Homo sapiens, UniProt O00329); conditions: PIK3CD; 1000 nM; read-out: Percent Control
[5] = molecular target: panel of 468 diverse kinases (Homo sapiens, UniProt O00506); conditions: YSK1; 1000 nM; read-out: Percent Control
[6] = molecular target: panel of 468 diverse kinases (Homo sapiens, UniProt Q9UL54); conditions: TAOK2; 1000 nM; read-out: Percent Control
[7] = molecular target: panel of 468 diverse kinases (Homo sapiens, UniProt P21860); conditions: ERBB3; 1000 nM; read-out: Percent Control
panel of 468 diverse kinases (Homo sapiens, UniProt P21860), sequence (P21860 20-1342 limits assumed): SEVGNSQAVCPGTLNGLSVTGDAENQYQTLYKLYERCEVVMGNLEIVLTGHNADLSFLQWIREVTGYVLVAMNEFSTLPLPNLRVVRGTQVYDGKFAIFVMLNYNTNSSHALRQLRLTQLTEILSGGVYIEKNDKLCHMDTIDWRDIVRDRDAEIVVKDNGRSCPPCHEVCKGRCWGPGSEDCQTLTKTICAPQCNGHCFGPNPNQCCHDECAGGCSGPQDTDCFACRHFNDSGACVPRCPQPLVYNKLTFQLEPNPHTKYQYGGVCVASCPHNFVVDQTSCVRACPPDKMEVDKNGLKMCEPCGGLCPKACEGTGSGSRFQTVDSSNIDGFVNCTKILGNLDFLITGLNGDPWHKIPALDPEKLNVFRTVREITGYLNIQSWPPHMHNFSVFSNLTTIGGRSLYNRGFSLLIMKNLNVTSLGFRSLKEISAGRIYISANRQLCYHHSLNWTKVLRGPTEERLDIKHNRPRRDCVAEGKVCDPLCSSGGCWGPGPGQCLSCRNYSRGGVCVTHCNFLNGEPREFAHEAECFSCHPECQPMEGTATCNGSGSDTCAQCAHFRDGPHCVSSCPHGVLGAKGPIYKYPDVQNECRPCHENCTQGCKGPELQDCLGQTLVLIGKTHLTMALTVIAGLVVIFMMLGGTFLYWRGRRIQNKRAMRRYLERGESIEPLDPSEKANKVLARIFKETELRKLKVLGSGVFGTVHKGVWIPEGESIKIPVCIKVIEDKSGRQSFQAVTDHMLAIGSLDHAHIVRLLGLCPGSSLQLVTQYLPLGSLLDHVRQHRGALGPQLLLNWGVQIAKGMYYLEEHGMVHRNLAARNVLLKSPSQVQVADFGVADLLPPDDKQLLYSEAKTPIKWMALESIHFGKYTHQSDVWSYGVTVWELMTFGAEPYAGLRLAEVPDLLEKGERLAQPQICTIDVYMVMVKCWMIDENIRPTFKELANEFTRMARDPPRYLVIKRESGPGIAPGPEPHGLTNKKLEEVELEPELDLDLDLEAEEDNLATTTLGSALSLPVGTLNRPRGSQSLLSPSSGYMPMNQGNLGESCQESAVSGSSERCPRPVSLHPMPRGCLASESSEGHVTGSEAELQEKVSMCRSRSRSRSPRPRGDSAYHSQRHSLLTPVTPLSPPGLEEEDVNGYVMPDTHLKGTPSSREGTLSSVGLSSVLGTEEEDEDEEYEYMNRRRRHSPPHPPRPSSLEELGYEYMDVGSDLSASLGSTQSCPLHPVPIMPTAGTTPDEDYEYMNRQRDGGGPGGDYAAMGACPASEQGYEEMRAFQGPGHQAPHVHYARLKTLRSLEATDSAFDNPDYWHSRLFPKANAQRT

[8] = molecular target: panel of 468 diverse kinases (Homo sapiens, UniProt Q96BR1); conditions: SGK3; 1000 nM; read-out: Percent Control
[9] = molecular target: panel of 468 diverse kinases (Homo sapiens, UniProt Q56UN5); conditions: YSK4; 1000 nM; read-out: Percent Control
[10] = molecular target: panel of 468 diverse kinases (Homo sapiens, UniProt P37173); conditions: TGFBR2; 1000 nM; read-out: Percent Control
panel of 468 diverse kinases (Homo sapiens, UniProt P37173), sequence (P37173 23-567 limits assumed): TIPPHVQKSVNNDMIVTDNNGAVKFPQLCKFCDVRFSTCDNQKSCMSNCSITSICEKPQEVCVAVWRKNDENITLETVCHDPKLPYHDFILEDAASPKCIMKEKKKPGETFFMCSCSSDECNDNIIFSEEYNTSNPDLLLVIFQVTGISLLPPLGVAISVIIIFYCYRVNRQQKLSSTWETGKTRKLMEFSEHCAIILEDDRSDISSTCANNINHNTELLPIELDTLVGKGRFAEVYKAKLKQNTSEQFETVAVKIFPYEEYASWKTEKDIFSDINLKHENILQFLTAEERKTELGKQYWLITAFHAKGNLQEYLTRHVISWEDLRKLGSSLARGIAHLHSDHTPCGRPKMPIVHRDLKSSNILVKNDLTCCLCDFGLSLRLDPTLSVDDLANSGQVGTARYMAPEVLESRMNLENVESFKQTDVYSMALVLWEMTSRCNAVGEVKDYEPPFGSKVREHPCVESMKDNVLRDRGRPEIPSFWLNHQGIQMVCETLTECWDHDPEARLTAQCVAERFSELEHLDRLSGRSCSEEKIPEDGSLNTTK

[11] = molecular target: panel of 468 diverse kinases (Homo sapiens, UniProt O76039); conditions: CDKL5; 1000 nM; read-out: Percent Control
[12] = molecular target: panel of 468 diverse kinases (Homo sapiens, UniProt P00533, DEL746-750); conditions: EGFR(E746-A750del); 1000 nM; read-out: Percent Control
panel of 468 diverse kinases (Homo sapiens, UniProt P00533, DEL746-750), sequence (P00533 with tags, fused parts or gaps DEL746-750 limits assumed): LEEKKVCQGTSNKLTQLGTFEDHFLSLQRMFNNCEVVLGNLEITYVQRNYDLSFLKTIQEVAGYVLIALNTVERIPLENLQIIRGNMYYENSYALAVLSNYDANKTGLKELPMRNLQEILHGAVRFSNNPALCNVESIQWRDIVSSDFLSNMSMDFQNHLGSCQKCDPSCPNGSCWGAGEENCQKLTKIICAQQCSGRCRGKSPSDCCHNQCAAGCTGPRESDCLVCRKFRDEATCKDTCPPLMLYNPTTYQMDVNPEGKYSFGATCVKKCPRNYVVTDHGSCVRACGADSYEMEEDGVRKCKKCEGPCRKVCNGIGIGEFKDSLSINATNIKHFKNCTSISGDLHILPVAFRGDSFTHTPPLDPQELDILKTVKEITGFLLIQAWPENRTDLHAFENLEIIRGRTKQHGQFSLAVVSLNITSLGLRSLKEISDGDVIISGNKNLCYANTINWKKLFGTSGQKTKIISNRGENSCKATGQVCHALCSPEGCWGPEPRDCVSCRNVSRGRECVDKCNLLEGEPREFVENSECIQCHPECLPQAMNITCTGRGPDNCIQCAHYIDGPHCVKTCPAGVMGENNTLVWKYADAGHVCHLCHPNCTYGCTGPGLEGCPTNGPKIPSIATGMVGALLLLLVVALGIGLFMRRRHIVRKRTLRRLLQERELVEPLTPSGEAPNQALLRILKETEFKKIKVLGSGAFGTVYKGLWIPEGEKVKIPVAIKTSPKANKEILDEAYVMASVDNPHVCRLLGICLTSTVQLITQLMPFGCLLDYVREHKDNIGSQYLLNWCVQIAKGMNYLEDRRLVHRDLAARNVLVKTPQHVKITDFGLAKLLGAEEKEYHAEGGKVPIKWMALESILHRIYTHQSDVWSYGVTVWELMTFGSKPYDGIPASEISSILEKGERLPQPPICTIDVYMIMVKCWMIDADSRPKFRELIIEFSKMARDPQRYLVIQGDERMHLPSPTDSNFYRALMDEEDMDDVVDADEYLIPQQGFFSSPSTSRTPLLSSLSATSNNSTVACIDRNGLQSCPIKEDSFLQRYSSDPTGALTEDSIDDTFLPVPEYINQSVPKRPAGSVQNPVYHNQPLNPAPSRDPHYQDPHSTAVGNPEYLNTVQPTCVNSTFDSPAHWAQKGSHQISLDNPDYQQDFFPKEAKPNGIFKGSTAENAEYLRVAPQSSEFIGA

[13] = molecular target: panel of 468 diverse kinases (Homo sapiens, UniProt P51955); conditions: NEK2; 1000 nM; read-out: Percent Control
[14] = molecular target: panel of 468 diverse kinases (Homo sapiens, UniProt P36507); conditions: MEK2; 1000 nM; read-out: Percent Control
[15] = molecular target: panel of 468 diverse kinases (Homo sapiens, UniProt P00519, E255K); conditions: ABL1(E255K)-phosphorylated; 1000 nM; read-out: Percent Control
[16] = molecular target: panel of 468 diverse kinases (Homo sapiens, UniProt O14920); conditions: IKK-beta; 1000 nM; read-out: Percent Control
[17] = molecular target: panel of 468 diverse kinases (Homo sapiens, UniProt Q6P2M8); conditions: CAMK1B; 1000 nM; read-out: Percent Control
[18] = molecular target: panel of 468 diverse kinases (Homo sapiens, UniProt Q96Q40); conditions: PFTAIRE2; 1000 nM; read-out: Percent Control
[19] = molecular target: panel of 468 diverse kinases (Homo sapiens, UniProt Q52WX2); conditions: SBK1; 1000 nM; read-out: Percent Control
[20] = molecular target: panel of 468 diverse kinases (Homo sapiens, UniProt Q9UKI8); conditions: TLK1; 1000 nM; read-out: Percent Control
[21] = molecular target: panel of 468 diverse kinases (Homo sapiens, UniProt P27361); conditions: ERK1; 1000 nM; read-out: Percent Control
panel of 468 diverse kinases (Homo sapiens, UniProt P27361), sequence (P27361 2-379 limits assumed): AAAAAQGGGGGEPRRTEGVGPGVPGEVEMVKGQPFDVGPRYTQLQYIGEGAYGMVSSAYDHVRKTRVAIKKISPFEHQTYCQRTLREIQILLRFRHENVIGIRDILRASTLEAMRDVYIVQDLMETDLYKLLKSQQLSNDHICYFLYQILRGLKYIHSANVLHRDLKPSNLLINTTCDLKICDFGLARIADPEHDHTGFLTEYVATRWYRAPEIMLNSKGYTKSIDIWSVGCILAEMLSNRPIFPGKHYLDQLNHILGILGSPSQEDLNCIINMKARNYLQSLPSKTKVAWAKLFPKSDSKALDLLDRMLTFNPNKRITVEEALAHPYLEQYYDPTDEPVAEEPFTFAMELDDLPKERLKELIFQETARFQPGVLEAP

[22] = molecular target: panel of 468 diverse kinases (Homo sapiens, UniProt P36897); conditions: TGFBR1; 1000 nM; read-out: Percent Control
panel of 468 diverse kinases (Homo sapiens, UniProt P36897), sequence (P36897 34-503 limits assumed): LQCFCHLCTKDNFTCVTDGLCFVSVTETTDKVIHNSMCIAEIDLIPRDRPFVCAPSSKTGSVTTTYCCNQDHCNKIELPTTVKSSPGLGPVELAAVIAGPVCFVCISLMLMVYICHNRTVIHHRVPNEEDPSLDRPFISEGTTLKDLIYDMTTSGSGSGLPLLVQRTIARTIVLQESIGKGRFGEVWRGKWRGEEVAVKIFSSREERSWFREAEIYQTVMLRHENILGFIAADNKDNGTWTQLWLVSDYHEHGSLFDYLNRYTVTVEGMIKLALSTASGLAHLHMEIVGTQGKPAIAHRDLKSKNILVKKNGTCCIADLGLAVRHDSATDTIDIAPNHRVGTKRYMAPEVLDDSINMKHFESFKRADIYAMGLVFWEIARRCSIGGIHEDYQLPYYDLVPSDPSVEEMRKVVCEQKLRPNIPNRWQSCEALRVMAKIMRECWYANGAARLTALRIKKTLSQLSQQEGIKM

[23] = molecular target: panel of 468 diverse kinases (Homo sapiens, UniProt O00750); conditions: PIK3C2B; 1000 nM; read-out: Percent Control
[24] = molecular target: panel of 468 diverse kinases (Homo sapiens, UniProt P15056); conditions: BRAF; 1000 nM; read-out: Percent Control
panel of 468 diverse kinases (Homo sapiens, UniProt P15056), sequence (P15056 2-766 limits assumed): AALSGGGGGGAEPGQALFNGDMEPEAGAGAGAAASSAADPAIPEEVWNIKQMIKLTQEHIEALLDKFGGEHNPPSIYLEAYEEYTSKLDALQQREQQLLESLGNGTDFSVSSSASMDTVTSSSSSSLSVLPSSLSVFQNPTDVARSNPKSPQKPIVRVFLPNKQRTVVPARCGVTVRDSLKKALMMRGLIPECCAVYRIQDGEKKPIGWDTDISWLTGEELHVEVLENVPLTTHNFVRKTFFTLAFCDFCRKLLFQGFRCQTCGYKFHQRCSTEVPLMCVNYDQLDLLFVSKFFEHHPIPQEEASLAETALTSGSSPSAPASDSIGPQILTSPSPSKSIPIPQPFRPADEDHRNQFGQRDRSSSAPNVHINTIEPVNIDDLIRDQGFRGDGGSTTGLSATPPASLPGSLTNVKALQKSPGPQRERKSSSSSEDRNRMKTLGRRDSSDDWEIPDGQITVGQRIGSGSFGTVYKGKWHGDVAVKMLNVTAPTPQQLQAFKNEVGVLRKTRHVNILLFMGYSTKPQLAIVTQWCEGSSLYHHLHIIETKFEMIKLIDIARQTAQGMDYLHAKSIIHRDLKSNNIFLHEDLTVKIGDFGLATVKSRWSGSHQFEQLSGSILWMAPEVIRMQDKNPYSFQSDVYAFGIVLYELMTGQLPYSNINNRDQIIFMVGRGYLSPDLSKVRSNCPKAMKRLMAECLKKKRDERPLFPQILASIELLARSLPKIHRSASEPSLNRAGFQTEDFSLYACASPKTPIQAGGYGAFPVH

[25] = molecular target: panel of 468 diverse kinases (Homo sapiens, UniProt P53778); conditions: p38-gamma; 1000 nM; read-out: Percent Control
[26] = molecular target: panel of 468 diverse kinases (Homo sapiens, UniProt Q8N568); conditions: DCAMKL2; 1000 nM; read-out: Percent Control
[27] = molecular target: panel of 468 diverse kinases (Homo sapiens, UniProt Q9BX84); conditions: TRPM6; 1000 nM; read-out: Percent Control
[28] = molecular target: panel of 468 diverse kinases (Homo sapiens, UniProt Q9Y2K2); conditions: QSK; 1000 nM; read-out: Percent Control
[29] = molecular target: panel of 468 diverse kinases (Homo sapiens, UniProt P25098); conditions: GRK2; 1000 nM; read-out: Percent Control
[30] = molecular target: panel of 468 diverse kinases (Homo sapiens, UniProt O96013); conditions: PAK4; 1000 nM; read-out: Percent Control
[31] = molecular target: panel of 468 diverse kinases (Homo sapiens, UniProt O75582); conditions: 1000 nM, read-out: Percent Control

Work on `COc1cc2nc(NC3CC3)nc(NC3CCN(C(C)C)CC3)c2cc1OC` [Formula IV] yielded a remaining activity at 1 µM [1] of 90%, a remaining activity at 1 µM [2] of 100% and a remaining activity at 1 µM [3] of 54%. It also gave a remaining activity at 1 µM [4] of 74%, a remaining activity at 1 µM [5] of 98% and a remaining activity at 1 µM [6] of 87%. It also gave a remaining activity at 1 µM [7] of 100%, a remaining activity at 1 µM [8] of 60% and a remaining activity at 1 µM [9] of 78%. It also gave a remaining activity at 1 µM [10] of 94%, a remaining activity at 1 µM [11] of 52% and a remaining activity at 1 µM [12] of 63%. It also gave a remaining activity at 1 µM [13] of 100%, a remaining activity at 1 µM [14] of 58% and a remaining activity at 1 µM [15] of 89%. The remaining activity at 1 µM [16] was 66%, the remaining activity at 1 µM [17] was 59% and the remaining activity at 1 µM [18] was 90%. It also gave a remaining activity at 1 µM [19] of 64%, a remaining activity at 1 µM [20] of 90% and a remaining activity at 1 µM [21] of 98%. For the same compound, the remaining activity at 1 µM [22] was 82%, the remaining activity at 1 µM [23] was 87% and the remaining activity at 1 µM [24] was 88%. It also gave a remaining activity at 1 µM [25] of 78%, a remaining activity at 1 µM [26] of 90% and a remaining activity at 1 µM [27] of 90%. It also gave a remaining activity at 1 µM [28] of 44%, a remaining activity at 1 µM [29] of 83% and a remaining activity at 1 µM [30] of 96%. The remaining activity at 1 µM ([31]; RPS6KA5(Kin.Dom.1-N-terminal)) was 75% and the remaining activity at 1 µM ([31]; RPS6KA5(Kin.Dom.2-C-terminal)) was 100%.
